A short description of data set [1]: Cytotoxicity in murine macrophages (MTT). The format is cell-based. As to conditions: mouse, J774.1 murine macrophages; 48 hs. Here is the method: (§1) TZM-bl cells, U87-CD4-CCR5, murine macrophages (J774.1), and THP-1 monocytes (ATCC®TIB-202™) were grown following ATCC recommendations. Cells were seeded in a 96-well plate (10^4 cells in 200 µL culture medium) and incubated at 37 °C in a 5% CO2 atmosphere for 48 h, to allow cell adhesion before drug testing. For stimulation (THP-1 monocytes), cells were incubated with 100 nM of phorbol 12-myristate 13-acetate (PMA) for 48 h. […] A vehicle for control (0.4% DMSO) and negative wells (cells in medium) was used in each test. […] After removing the medium, formazan crystals were dissolved in 180 µL of DMSO and 20µL of MTT buffer (0.1 M glycine, 0.1 M NaCl, 0.5 mM EDTA, pH 10.5), and the absorbance at 560 nm was measured. […] Tests were performed in triplicate, in two independent experiments.

Data set [2] is described as follows: Cytotoxicity in human macrophages (PMA-stimulated THP-1 monocytes, MTT). The format is cell-based. The following applies: PMA-stimulated THP-1 monocytes (human macrophages), 48hs. Here is the method: as §1
Another data set deals with human red blood cells. Briefly: Red blood cell lysis assay. Type of data set: cell-based. As to conditions: Erythrocyte, 24hs. As to the method:
Human blood (blood discarded from the blood bank) collected in sodium citrate solution (3.8%) was centrifuged at 200 × g for 10 min at 4 °C. The plasma supernatant was removed and erythrocytes were suspended in ice-cold PBS. The cells were again centrifuged at 200 × g for 10 min at 4 °C. This procedure was repeated two more times to ensure the removal of any released hemoglobin. Once the supernatant was removed after the last wash, the cells were suspended in PBS to 2% w/v red blood cell solution. […] Ten replicates for each concentration were done and incubated for 24 h at 37 °C before analysis. Complete hemolysis was attained using neat water yielding the 100% control value (positive control). The release of hemoglobin into the supernatant was determined spectrophotometrically at 405 nm using a multiplate reader VarioskanTM Flash Multimode Reader (Thermo Scientific, MA, US). Results are expressed as the percentage of total hemoglobin released in the presence of the compounds. This percentage was calculated using the equation percentage hemolysis (%) = [(A1 − A0)/(Aw)] × 100, where A1 is the absorbance at 405 nm of the test sample at t = 24 h, A0 is the absorbance at 405 nm of the test sample at t = 0 h, and Aw is the absorbance at 405 nm of the positive control (water) at t = 24 h. […] The experiments were done in quintuplicate. AmpB was used as a positive control.

The nature of data set [3]: Cytotoxicity in mammalian cells (MTT, all cell types). Type of data set: cell-based. The following applies: tested at 25, 50, and 100 µM. Here is the method: The cytotoxicity of the compounds was assayed in different types of cells (TZM-bl cells, U87-CD4-CCR5, murine macrophages (J774.1), and THP-1 monocytes) at 25, 50, and 100 µM (Fig. 2). […] Compound 314 has the most complete toxicology profile because was preclinically developed for Chagas disease infection, as an antiparasitic drug. […] It has lower oral toxicity than PF74. Was predicted as no mutagenic by the TEST software.
TZM-bl cells, U87-CD4-CCR5, murine macrophages (J774.1), and THP-1 monocytes (ATCC®TIB-202™) were grown following ATCC recommendations. Cells were seeded in a 96-well plate (10^4 cells in 200 µL culture medium) and incubated at 37 °C in a 5% CO2 atmosphere for 48 h, to allow cell adhesion before drug testing. For stimulation (THP-1 monocytes), cells were incubated with 100 nM of phorbol 12-myristate 13-acetate (PMA) for 48 h. PMA was then washed and cells were left for an additional 24 h, 48 h or11 days (only U87 cells) with growth media containing compound 696 at 10, 25, 50, and 100 µM. […] Cell viability was then assessed by measuring the mitochondria-dependent reduction of MTT (3-(4,5-dimethylthiazol-2-yl)-2,5-diphenyltetrazolium bromide) to formazan. […] After removing the medium, formazan crystals were dissolved in 180 µL of DMSO and 20µL of MTT buffer (0.1 M glycine, 0.1 M NaCl, 0.5 mM EDTA, pH 10.5), and the absorbance at 560 nm was measured. […]

For another data set, the target named is HIV-1 CA (Human immunodeficiency virus type 1 group M subtype B, UniProt P12493). Briefly: HIV-1 CA assembly inhibition assay (absorbance at 340 nm). Type of data set: biochemical. The arrangement: the capsid protein (CA) of the Gag polyprotein; made in house; host or cells: Escherichia coli BL21(DE3) pLysS. Here is the method:
The CA assembly assay was performed in a final volume of 70 µL in 384-well plates, with a final concentration of 5 mg/mL of purified recombinant HIV-1 CA in Phosphate/NaCl Buffer (NaH2PO4/Na2HPO4 50 mM, NaCl 100 mM, pH 7.4), as described for FIV CA [27, 31]. Absorbance was measured at 340 nm every 30 s in a multiplate reader VarioskanTM Flash Multimode Reader (Thermo Scientific, MA, US) at 37 °C for 30 min. The compounds were tested at a fixed initial dose of 25 or 50 µM (at 0.5% DMSO [v/v]) by adding 1 µL of the concentrated ligand to the well before starting the measurement. The controls were CA at 5 mg/mL in only 0.5% DMSO [v/v] and CA without DMSO. The criteria to select active compounds were the observation of at least 50% of assembly inhibition at these doses, based on the reduction of the OD value at 340 nm at the plateau value compared to the controls.

The structures appear in SMILES notation. Where two headings read alike, the source gives them in different places.

As to `Cc1ccc2c(c1)nc(-c1ccc(N(C)C)cc1)n2CCc1ccccc1` [compound 696, 2-(4-N,N-dimethylaminophenyl)-5-methyl-1-phenethyl-1H-benzimidazole], the EC50 at 48 h in data set [1] was above 50 µM; in data set [2], above 100 µM. In addition, the half-maximal effective concentration (EC50) with human red blood cells is above 100 µM; in data set [3], above 50 µM. For the same compound, the results for the “Effect in p24 multimerization in vitro” value on HIV-1 CA and at HIV-1 CA (listed as C00002) were “inhibited” and “inhibition”, respectively. Further, the “interference with the assembly of HIV-1 CA in vitro” value at HIV-1 CA (compounds at 25 or 50 µM, CA 5 mg/mL, 30 min) is reported as “interference with the assembly”.

Source of the values: article PMC9241302, “Identification of 2-(4-N,N-Dimethylaminophenyl)-5-methyl-1-phenethyl-1H-benzimidazole targeting HIV-1 CA capsid protein and inhibiting HIV-1 replication in cellulo” (BMC Pharmacology & Toxicology, 2022).
